The record followed here is ChEMBL document CHEMBL1201862, “PubChem BioAssay data set” (2004).

Active and inactive are the calls of the source.

One test addresses Cytochrome P450 2C19 (Homo sapiens, UniProt P33261). Description: Cytochrome panel assay with activity outcomes. Panel member name: p450-cyp2c19 Compounds with AC50 equal or less than 10 uM are considered active. It is filed as functional. The conditions noted are these: read-out: AC50.
Test [1] is described as follows: inhibitors of SNCA 5'UTR-driven reporter translation, confirmation, H4 neuroglioma cells, luminescence (AID 1988). It is filed as functional, cell-based.
Test [2] in a line: Luminescence Cell-Based Dose Response HTS to Identify Inhibitors of 5'UTR Stem-Loop Driven Prion Protein mRNA Translation in H4 Neuroglioblastoma Cells. [Related pubchem assays: 1827 (Project Summary), 1813 (Primary HTS)]. It is filed as functional.
Test [3] addresses T1, Ubiquitin-conjugating enzyme E2 N (Homo sapiens, UniProt P61088).
T1 sequence (P61088 whole entry): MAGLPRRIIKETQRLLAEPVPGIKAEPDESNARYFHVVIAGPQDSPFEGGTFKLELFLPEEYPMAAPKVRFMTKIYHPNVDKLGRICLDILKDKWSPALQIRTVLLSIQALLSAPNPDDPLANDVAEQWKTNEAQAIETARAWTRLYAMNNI
It counts as functional.

Test [4] can be described thus: HepG2 cell cytotoxicity, dose response, cytotoxicity control for Shn3 inhibitor project, CellTiter-Glo, cherry-picked (AID 624134). It counts as functional, cell-based.
The target in test [5] is Beta-2 adrenergic receptor (Homo sapiens, UniProt P07550). As to the kind of experiment: beta2AR agonists driving receptor internalization, dose response, cell-based, FAP fluorogen, flow cytometry, cherry pick 1 (AID 588763). It counts as functional. On the technique in general: A flow cytometer gives signals particle by particle.
Test [6] in a line: control 3'UTR Renilla luciferase suppression, dose response, counter-screen for Shn3 inhibitor project, cell-based, Clone20-Shn3RL, cherry-picked (AID 624133). It counts as functional. (Counterscreens check selectivity or assay interference.)
The subject of another test is INS1. Description: beta cell apoptosis inhibitors, cytokine rescue, dose response, luminescence, retest (AID 449756).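 Further: cell death triggered by IL-1 beta plus TNF-alpha plus IFN-gamma mixture; protective hits raise ATP signal compared with cytokine alone wells.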 It is filed as functional, cell-based. The conditions noted are these: Rattus norvegicus.
In a further test the target is Cytochrome P450 2C9 (Homo sapiens, UniProt P11712).
Test [7] in a line: growth suppression of beta-catenin-knockout colon cells, dose response, cell-based, HCT116, human colon tumor (AID 1045).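 Further: HCT116 colon tumor cells with beta catenin knocked out; cells exposed to compound for 60 hours.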 It counts as functional.
Test [8] is described as follows: inhibitors of firefly luciferase expression or activity, dose response, H4 neuroglioma cells, luminescence (AID 1990). It counts as functional, cell-based.
Test [9] in a line: Shn3 3'UTR reporter inhibitors, dose response, cell-based, Clone20 osteoblasts, firefly luciferase, cherry-picked (AID 624132).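 Further: firefly luciferase luminescence from reporter carrying the Shn3 3'UTR in osteoblasts.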 It is filed as functional.
A short description of test [10]: growth suppression of PTEN-null colon cells, dose response, cell-based, HCT116 PTEN knockout (AID 1047).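 Further: HCT116 colon tumor cells with PTEN knocked out; cells exposed to compound for 60 hours before readout; potency for loss of cell viability measured by luminescence.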 It counts as functional.
Test [11] has as its target Potassium voltage-gated channel subfamily KQT member 2/member 3 (Rattus norvegicus, UniProt O88943+O88944). Description: Mode of action assay-Dose response assay for KCNQ2 activators in the KCNQ2/KCNQ3 co-expressing cells on automated patch clamp. [Related pubchem assays (depositor defined):AID2239, AID2258, AID2287]. It is filed as functional.
The target in test [12] is Potassium voltage-gated channel subfamily KQT member 4 (Homo sapiens, UniProt P56696). As to the kind of experiment: human KCNQ4 channel current potentiation, dose response, selectivity assay for KCNQ2 activator project, automated patch clamp, CHO cells (AID 493043). It counts as functional, cell-based. In general terms: Patch clamp records ionic current or voltage across a cell membrane.

Test [13] addresses Potassium voltage-gated channel subfamily KQT member 2 (Rattus norvegicus, UniProt O88943). As to the kind of experiment: Mode of action assay-Dose response assay for compounds that activate KCNQ2 potassium channels on automated patch clamp. [Related pubchem assays (depositor defined):AID2239, AID2258, AID2287, AID493113]. It is filed as functional.
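Wherever IC50 is given: Dose-response confirmation in a TR-FRET assay detecting UBC13-driven polyubiquitin chain formation, inhibition measured.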

Sequence of Beta-2 adrenergic receptor (P07550 whole entry): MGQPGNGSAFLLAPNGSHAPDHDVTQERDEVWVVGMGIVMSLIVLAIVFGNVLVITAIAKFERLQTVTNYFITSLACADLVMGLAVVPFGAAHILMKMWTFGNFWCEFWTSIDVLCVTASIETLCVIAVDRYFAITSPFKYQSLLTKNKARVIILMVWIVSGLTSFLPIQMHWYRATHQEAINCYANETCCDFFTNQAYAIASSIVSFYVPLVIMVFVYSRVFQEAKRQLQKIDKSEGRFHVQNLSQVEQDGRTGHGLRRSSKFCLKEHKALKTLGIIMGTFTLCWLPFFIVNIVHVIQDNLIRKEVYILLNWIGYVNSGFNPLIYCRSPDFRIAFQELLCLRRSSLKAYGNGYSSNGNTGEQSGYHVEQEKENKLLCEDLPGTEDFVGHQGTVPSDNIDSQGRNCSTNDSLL
Sequence of Potassium voltage-gated channel subfamily KQT member 4 (P56696 whole entry): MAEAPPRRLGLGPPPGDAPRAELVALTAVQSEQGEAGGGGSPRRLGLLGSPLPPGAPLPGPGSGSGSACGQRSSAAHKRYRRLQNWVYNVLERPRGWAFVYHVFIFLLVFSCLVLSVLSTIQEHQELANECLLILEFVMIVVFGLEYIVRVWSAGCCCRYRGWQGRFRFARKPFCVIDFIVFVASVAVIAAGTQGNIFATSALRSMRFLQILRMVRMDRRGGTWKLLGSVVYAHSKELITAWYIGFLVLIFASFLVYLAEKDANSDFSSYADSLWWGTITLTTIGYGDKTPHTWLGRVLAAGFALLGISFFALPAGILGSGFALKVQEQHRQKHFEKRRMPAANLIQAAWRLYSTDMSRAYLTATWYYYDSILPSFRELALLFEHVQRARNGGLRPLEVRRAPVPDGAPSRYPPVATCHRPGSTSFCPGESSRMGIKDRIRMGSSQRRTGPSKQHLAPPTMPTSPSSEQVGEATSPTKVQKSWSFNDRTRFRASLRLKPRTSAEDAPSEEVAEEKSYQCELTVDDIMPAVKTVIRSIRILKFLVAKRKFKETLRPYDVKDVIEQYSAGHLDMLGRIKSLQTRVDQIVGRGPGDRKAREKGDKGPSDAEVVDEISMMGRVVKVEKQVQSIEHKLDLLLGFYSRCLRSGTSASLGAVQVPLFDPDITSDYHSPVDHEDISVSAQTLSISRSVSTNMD
Sequence of Cytochrome P450 2C9 (P11712 whole entry): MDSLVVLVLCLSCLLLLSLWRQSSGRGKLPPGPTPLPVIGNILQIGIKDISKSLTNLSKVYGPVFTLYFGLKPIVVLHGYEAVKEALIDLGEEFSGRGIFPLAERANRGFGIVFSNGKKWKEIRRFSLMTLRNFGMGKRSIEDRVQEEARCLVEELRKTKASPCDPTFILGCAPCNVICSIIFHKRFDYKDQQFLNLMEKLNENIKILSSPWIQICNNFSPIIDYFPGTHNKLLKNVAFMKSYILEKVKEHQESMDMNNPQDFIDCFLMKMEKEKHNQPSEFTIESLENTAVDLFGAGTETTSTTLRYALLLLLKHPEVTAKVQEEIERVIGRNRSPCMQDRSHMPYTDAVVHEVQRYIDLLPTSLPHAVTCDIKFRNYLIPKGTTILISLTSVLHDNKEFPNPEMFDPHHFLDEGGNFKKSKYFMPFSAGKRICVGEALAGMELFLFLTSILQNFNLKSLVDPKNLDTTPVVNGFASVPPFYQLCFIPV
Sequence of Potassium voltage-gated channel subfamily KQT member 2/member 3 (O88943 whole entry): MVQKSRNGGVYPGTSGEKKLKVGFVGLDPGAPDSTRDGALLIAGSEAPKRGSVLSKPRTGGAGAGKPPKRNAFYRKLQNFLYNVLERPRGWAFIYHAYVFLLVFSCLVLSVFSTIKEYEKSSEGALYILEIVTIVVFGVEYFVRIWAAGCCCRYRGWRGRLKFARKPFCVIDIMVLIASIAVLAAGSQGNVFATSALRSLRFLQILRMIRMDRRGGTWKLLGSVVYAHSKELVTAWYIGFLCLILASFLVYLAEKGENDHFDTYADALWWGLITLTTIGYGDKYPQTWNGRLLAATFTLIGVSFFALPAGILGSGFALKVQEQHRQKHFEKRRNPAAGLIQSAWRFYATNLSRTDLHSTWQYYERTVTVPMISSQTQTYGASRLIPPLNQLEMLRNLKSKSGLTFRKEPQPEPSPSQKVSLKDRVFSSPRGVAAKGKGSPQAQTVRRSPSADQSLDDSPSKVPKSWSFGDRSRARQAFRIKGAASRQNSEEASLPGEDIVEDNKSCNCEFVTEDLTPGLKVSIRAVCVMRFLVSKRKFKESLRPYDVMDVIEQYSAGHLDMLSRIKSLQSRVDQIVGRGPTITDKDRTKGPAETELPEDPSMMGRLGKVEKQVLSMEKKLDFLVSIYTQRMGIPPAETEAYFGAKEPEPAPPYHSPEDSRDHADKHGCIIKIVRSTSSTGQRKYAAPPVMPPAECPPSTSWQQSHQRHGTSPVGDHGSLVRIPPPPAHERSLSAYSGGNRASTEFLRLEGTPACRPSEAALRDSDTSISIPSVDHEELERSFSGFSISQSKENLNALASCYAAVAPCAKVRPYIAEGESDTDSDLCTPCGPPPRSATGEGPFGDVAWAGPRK
Sequence of Potassium voltage-gated channel subfamily KQT member 2/member 3 (O88944 whole entry): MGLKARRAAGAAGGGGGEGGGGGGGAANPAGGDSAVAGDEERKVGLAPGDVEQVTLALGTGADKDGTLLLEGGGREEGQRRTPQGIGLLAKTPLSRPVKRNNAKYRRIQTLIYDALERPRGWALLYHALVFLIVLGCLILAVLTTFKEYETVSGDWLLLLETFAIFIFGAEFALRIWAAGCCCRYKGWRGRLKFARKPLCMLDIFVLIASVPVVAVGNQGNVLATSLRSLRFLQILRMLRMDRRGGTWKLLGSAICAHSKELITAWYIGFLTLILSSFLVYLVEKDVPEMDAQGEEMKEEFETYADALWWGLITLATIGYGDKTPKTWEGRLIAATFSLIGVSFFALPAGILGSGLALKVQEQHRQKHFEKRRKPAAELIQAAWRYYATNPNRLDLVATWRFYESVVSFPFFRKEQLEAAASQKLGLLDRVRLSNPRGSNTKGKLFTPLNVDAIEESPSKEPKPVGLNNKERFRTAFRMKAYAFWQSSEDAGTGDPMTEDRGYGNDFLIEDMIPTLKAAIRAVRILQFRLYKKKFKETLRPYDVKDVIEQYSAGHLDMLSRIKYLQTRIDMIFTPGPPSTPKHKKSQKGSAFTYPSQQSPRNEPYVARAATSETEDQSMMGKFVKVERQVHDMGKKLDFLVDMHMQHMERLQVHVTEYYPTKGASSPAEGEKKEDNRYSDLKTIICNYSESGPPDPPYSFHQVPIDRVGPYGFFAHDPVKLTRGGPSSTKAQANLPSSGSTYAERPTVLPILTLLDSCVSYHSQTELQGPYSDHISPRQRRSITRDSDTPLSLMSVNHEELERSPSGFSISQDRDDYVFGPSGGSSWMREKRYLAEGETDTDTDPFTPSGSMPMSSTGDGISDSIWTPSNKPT
Sequence of Potassium voltage-gated channel subfamily KQT member 2 (O88943 whole entry): as the sequence (O88943 whole entry) above
Sequence of Cytochrome P450 2C19 (P33261 whole entry): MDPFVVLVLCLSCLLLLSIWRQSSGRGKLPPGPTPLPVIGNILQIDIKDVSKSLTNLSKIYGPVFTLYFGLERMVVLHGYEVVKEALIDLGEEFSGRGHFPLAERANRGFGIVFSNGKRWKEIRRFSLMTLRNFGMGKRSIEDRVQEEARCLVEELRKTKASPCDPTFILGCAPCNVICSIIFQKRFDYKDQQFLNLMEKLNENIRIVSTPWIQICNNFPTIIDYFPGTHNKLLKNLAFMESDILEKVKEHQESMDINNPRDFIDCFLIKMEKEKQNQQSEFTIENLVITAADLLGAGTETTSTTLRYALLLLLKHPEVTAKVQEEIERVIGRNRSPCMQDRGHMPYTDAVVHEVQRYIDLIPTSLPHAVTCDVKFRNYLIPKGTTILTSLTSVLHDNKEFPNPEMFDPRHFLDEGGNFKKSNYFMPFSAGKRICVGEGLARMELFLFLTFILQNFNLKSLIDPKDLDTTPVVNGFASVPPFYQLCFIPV

Turning to `CCOc1cc(CNCCc2ccc(S(N)(=O)=O)cc2)ccc1OCc1ccc(Cl)cc1`, the AC50 (usually the concentration at which the activity in the assay is half-maximal) was 17.8 µM (inconclusive) at Cytochrome P450 2C19; 9.14 µM (active) in test [4]; 4.75 µM (active) in test [6]; 4.78 µM (active) in the test with INS1; 11.2 µM (inconclusive) on Cytochrome P450 2C9; 3.87 µM (active) in test [9]. The half-maximal effective concentration (EC50) (usually the concentration that produces a half-maximal response) in test [1] is 59.1 µM (active); in test [2] it was > 120 µM (not active); in test [5] it was 16.1 µM (inactive); in test [7] it was 3.56 µM (active); in test [8], 9.07 µM (active); in test [10], 8.2 µM (active). Besides, the IC50 – broadly, the concentration needed to halve the response being measured – in test [3] is > 20 µM (inactive).

With `Cc1cccc(C)c1NC(=O)C1CC2CCC1C2` (stereo unspecified), the EC50 in test [11] was 4.66 µM (active); in test [12], 13.4 µM (active); in [13], 3.24 µM (active).
